Results reported in patent US20100305198A1, “CATIONIC LIPIDS” (THE UNIVERSITY COURT OF THE UNIVERSITY OF EDINBURG, priority 2007, published 2010).

Legend:
[1] = test system: HeLa cells; assay: Transfection of pEGFP-C1 into HeLa cell line (GFP expression by flow cytometry); type: cell-based, Human
Experimental: (§1) The corresponding cationic lipid 6a-l (1 mM in methanol) with or without DOPE (1 mM in methanol) were mixed in different proportions and the organic solvent removed by evaporation in an oven (37° C.) overnight. The resultant thin films were then hydrated with PBS. The solutions were vortexed (10-20 s) and incubated at ambient temperature for 30 min. Plasmid DNA or siRNA solution (0.04 mg/mL in PBS or another isotonic solution) was subsequently added and the solution vortexed (10-20 s). The lipoplexes were incubated at room temperature for 30 min before being used.
Human HeLa cells were grown in RPMI supplemented with 4 mM glutamine, 10% FCS and 100 units/ml penicillin/streptomycin (RPMI-CM) until 80% confluence. Cells were then suspended using trypsin/EDTA and counted. 2×10^4 cells in 150 μL of RPMI-CM per well were seeded in 96 well plates and incubated overnight. The day afterwards, the different lipoplex formulations were added. Each experiment was performed in quadruplicate, using Effectene® Transfection Reagent (Qiagen) and Lipofectamine™ 2000 (Invitrogen) as positive control and untreated cells as negative control.
After incubation for two days at 37° C. and 5% CO2 (the change of media after transfection was not necessary), the green fluorescent protein (GFP) expression, consequence of transfecting the pEGFP-C1, was evidenced using a fluorescent microscope (Leica) and measured by flow cytometry. For the flow cytometry analysis, cells were washed twice with PBS, detached with trypsin/EDTA, harvested with 2% ferum bovine serum (FBS) in PBS, centrifuged and resuspended with 2% FBS in PBS and analyzed using a BD FACSaria flow cytometer. Transfection efficiency was measured as percentage of transfected cells and total mean fluorescence. […] The number of cells analyzed per sample was 10,000. […] Each point represents a cell. The second column of graphs represents cell number in the y-axis and fluorescence intensity in the x-axis. All the graphs have been divided into two populations of cells according with the fluorescence intensity in order to give a reference for the transfection analysis: in the untransfected cell control P1 comprises 95% of the total number of cells analyzed; when cells are transfected with compound 6f P1 comprises 19.1% of the total number of cells analyzed; within the cells transfected with Effectene® Transfection Reagent P1 comprises 35.8% of the total number of cells analyzed; when cells transfected with Lipofectamine™ 2000, P1 comprises 49.8% of the total number of cells analyzed. FITC-A Mean is the mean fluorescence (arbitrary units) calculated for each population. The mean fluorescence calculated for P2 of the cells transfected with compound 6f is 120,059, which is, by far, the best result of (A)-(D).

[2] = test system: human embryonic kidney (HEK) 293T cell line; assay: Transfection of pEGFP-C1 into HEK293T cell line (flow cytometry); type: cell-based
Experimental: as §1

[3] = test system: B16F10 mouse melanoma cells; assay: Transfection of pEGFP-C1 into B16F10 cell line (flow cytometry); type: cell-based
Experimental: as §1

[4] = test system: GFP-expressing mES cells; assay: Transfection of siRNA into GFP-expressing mouse stem cells (GFP knock-down, flow cytometry); type: cell-based; conditions: 48 h
Experimental: as §1
mES cells were grown in GMEM supplemented with 4 mM glutamine and 10% FBS in the absence of antibiotic until 80% confluence. Cells were then suspended using trypsin/EDTA and counted. 2×10^4 cells in 150 μL of GMEM-CM per well were seeded in 96-well plates and incubated overnight. The day afterwards, the different lipoplex formulations were added. […]
After incubation for two days at 37° C. and 5% CO2 (change of media after transfection was not necessary), the green fluorescent protein (GFP) reduced expression was measured by flow cytometry. For the flow cytometry analysis, cells were washed twice with PBS, detached with trypsin/EDTA, harvested with 2% FBS in PBS, centrifuged and resuspended with 2% FBS in PBS and analyzed using a BD FACSaria flow cytometer. […] In Vivo Transfection and Non-Invasive Luminescence Imaging from Living Mice

[5] = test system: mouse lung; assay: In vivo transfection of luciferase-reporter plasmid (pLux) by intratracheal instillation and non-invasive luminescence imaging
Experimental: Mice were anesthetized and intubated following standard protocols. 16 μg of a luciferase-reporter plasmid (pLux, 4-6 mg/mL in PBS or another isotonic buffer) was complexed with Oleyl derivative 6i (N/P 12, 1:2 mol mixture with DOPE) following the protocol described before. Lipoplex formulation (total volume=50 μL) and naked plasmid (16 μg of plasmid in 50 μL of PBS) were then administrated into the lung by direct intratracheal instillation through peroral intubation.
Firefly luciferin (15 mg/kg) was intraperitoneally administrated to the anesthetized mice half an hour before scanning for luminescence. Mice were then imaged every 2 minutes using an IVIS SPECTRUM imaging device. FIGS. 9 and 10 show the non-invasive in vivo luminescence imaging of anesthetized mice transfected with 16 μg of a luciferase-reporter plasmid (pLux) complexed with derivative 6i (left mouse) and naked plasmid (right mouse) 72 and 120 hours after instillation respectively.

| Health of mice during the study ([5]; lipoplex instilled into the lung, followed on a daily basis) | SMILES | P1 population as % of the total number of cells analyzed ([1]; HeLa 48 h after transfection with reporter plasmid, 10,000 cells per sample, P1 = 95% in untransfected control, 6f at N/P 12, 1:2 mol mixture with DOPE) [%] | Mean fluorescence (FITC-A Mean) calculated for P2 ([1]; HeLa 48 h after transfection, N/P 12, 1:2 mol mixture with DOPE) | Transfection of HeLa cells compared with the positive controls (Lip2000 and Effectene) ([1]; pEGFP-C1, 48 h, N/P ratio 12, 1:2 mol mixture with DOPE) | % of GFP-expressing cells calculated via flow cytometry [2] [%] | % of GFP-expressing cells calculated via flow cytometry [3] [%] | Knock-down of GFP expression compared with Lipofectamine 2000 ([4]; GFP-expressing mES cells) | Knock-down of GFP expression ([4]; GFP-transformed mouse stem cells, N/P 12, 1:2 mol mixture with DOPE, preliminary assays) [%] | Percentage of transfected (GFP-expressing, fluorescent) cells ([1]; HeLa 48 hours after transfection with GFP-reporter plasmid, FIG. 6) [%] | In vivo luminescence after luciferin ([5]; 16 μg pLux complexed with lipid (N/P 12, 1:2 mol mixture with DOPE), intratracheal instillation, 72 and 120 hours after instillation) |
| --- | --- | --- | --- | --- | --- | --- | --- | --- | --- | --- |
|  | CCCCCCCCCCCCCCC(=O)NC(COC(=O)CCCN)(COC(=O)CCCN)COC(=O)CCCN [Compound 6f, N-[tris-(4-aminobutiryloximethyl)methyl]pentadecamide] | 19.1 | 120,059 arbitrary units | much better than the two positive controls | 62 | 43 | better than Lipofectamine™ 2000 | 40 |  |  |
|  | CCCCCCCCC=CCCCCCCCCOC(=O)CCC(=O)NC(COC(=O)CCCN)(COC(=O)CCCN)COC(=O)CCCN [Compound 13b, 9-octadecenyl [tris(4-aminobutanoyloxymethyl)methyl]amidosuccinate] |  |  |  |  |  |  |  | 79 |  |
| behaved healthily | CCCCCCCCC=CCCCCCCCC(=O)NC(COC(=O)CCCN)(COC(=O)CCCN)COC(=O)CCCN [Compound 6i, N-[tris-(4-aminobutiryloximethyl)methyl]-9-octadecenamide] |  |  |  | 54 | 61 |  |  |  | positive luminescence was detected |
